Results on three molecules are retold here after patent US20260007687A1, “A[…] EMULSION INJECTION AND METHOD FOR PREPARING SAME” (JIANGSU NHWA PHARMACEUTICAL CO., LTD, priority 2022, published 2026).

For data set [1] the following is noted: background statement; cited from earlier work.
The nature of data set [2]: ED50 of alphaxalone (basis of the dose in the histamine test). Conditions: in vivo.
Data set [3] has as its system histamine content in mouse plasma. Description: Mouse histamine release: plasma histamine content (ELISA) 30 min after intravenous injection. The note with it: mice. On the technique in general: In an ELISA, binding on a coated surface is turned into a signal by an enzyme label.
Description: Overall test method: the corresponding solution or formulation was prepared. Administration was performed by intravenous injection, and blood was collected 30 min after administration. After anticoagulation with EDTA, the blood was centrifuged to collect the plasma, and the histamine content in mouse plasma was measured with an ELISA kit.
Blank plasma: blood was directly collected from mice and centrifuged.
Normal saline: normal saline was injected at an administration volume of 5 mL/kg.
Blank fat emulsion (20% medium-long-chain fat emulsion): the administration volume was 5 mL/kg.
SBE-β-CD: the preparation method was: 0.7 mL of 13% SBE-β-CD+4.3 mL of normal saline, and the administration volume was 5 mL/kg. […] Cremophor EL: 0.7 mL of Cremophor EL+4.3 mL of normal saline, the concentration of Cremophor EL was 0.14 mL/mL, the dose was 5 mL/kg, and the dose of Cremophor EL was 0.7 mL/kg.
SBE-β-CD & Cremophor EL: 0.7 mL of 13% SBE-β-CD+0.7 mL of Cremophor EL+3.6 mL of normal saline, and the administration volume was 5 mL/kg.
The administration volume was 3.5 mL/kg, the dose was 7 mg/kg; the administration amount of castor oil was 0.245 mL/kg.

For the molecule `C[C@]12CC[C@@H](O)C[C@@H]1CC[C@H]1[C@@H]3CC[C@H](C(=O)CO)[C@@]3(C)CC(=O)[C@@H]12` [alphadolone], the “potency of alphadolone relative to alphaxalone” value in data set [1] was “half”.
In the case of `CC(=O)[C@H]1CC[C@H]2[C@@H]3CC[C@H]4C[C@H](O)CC[C@]4(C)[C@H]3C(=O)C[C@]12C` [alphaxalone], the ED50 of alphaxalone entry in data set [2] is “about 3.5 mg/kg”.
As for sulfobutyl-β-cyclodextrin [SBE-β-CD], the “Plasma histamine concentration” value in data set [3] was 15.28 ± 2.33 ng/mL.
